From patent US8226943B2, “Antibodies to notch receptors” (OncoMed Pharmaceuticals, Inc., priority 2008, dated 2012) come the findings set out here.

One assay has as its system stroma of Colo205 tumors. Kind of assay: Microarray gene expression in stroma of treated xenograft tumors, Colo205. The class given is in vivo, mice. The settings on record: 59R1 vs control. On the procedure: Gene expression levels in various xenograft tumor models treated with the 59R1 IgG2 antibody were analyzed by microarray analysis. Global gene expression profiling analysis was performed on Affymetrix HG-U133 plus 2.0 microarray (Affymetrix, Santa Clara, Calif.). Three independent RNA samples of xenograft whole tumors from the control and treatment groups were isolated and hybridized to the microarrays according to the manufacturer's instructions. Scanned array background adjustment and signal intensity normalization were performed with GCRMA algorithm in the open-source bioconductor software (www.bioconductor.org). The expression level of each gene was normalized by z-score transformation across the samples in the control (CTRL) and treatment (59R1) groups.

Assay [1] has as its system hDLL4-induced Notch2 signaling. Kind of assay: Luciferase reporter assay, hDLL4-induced Notch2 signaling in Hela cells. The class given is cell-based, human. The following applies: antibody titrated from 40 μg/ml. How it is done:
Luciferase reporter assays were used to assay the 59R1 antibody for its ability to block hDLL4-, hJAG1-, and hJAG2-induced Notch2 signaling.
Hela cells that stably overexpress human Notch2 were transiently transfected with firefly luciferase with a synthetic 8×CBS promoter (Ong et al., 2006, J. of Biological Chemistry, 281:5106-5119), pSPORT6 MAML-1, and Renilla luciferase-CMV as a transfection control. Cells were incubated with 100 ng of immobilized hDLL4 (R&D systems) with the indicated antibodies for 16 hours and then assayed using Dual-Glo (Promega) according to the manufacturer's instructions. Control antibody was at a concentration of 40 μg/ml. 59R1 IgG2 antibody was titrated, starting at 40 μg/ml, and then diluted by one-fourth. The gamma secretase inhibitor (GSI) dibenzazepine (DBZ) was used as a control at 1 μM.
Background: Reporter assays use an easily measured gene product as a stand-in for the process of interest.

A further assay concerns B51 breast tumor cells. Kind of assay: B51 breast tumor recurrence after paclitaxel. The assay is classed as in vivo, NOD-SCID mice. The following applies: 59R1 10 mg/kg twice per week plus paclitaxel 15 mg/kg twice per week for 38 days, then antibody only. How it is done: B51 breast tumor cells (50,000 cells per mouse) were injected sub-cutaneously into the mammary fat pad of NOD-SCID mice. Tumors were allowed to grow for 50 days until they had reached an average volume of ˜100 mm^3. Animals were randomized (n=10/group) and treatments were initiated. One group received a control antibody (1B711) at 10 mg/kg twice per week and paclitaxel (Taxol) at 15 mg/kg twice per week and the other group received 59R1 at 10 mg/kg twice per week and paclitaxel at 15 mg/kg twice per week. Tumor volumes were measured on the indicated days. Treatments were carried out for 38 days until the tumor volumes had regressed to ˜50 mm^3, after which the paclitaxel treatments were halted and the antibody treatments continued for the duration of the experiment.

Another assay concerns the target human Notch3 (Homo sapiens, UniProt Q9UM47). The assay can be described thus: FACS binding to transiently transfected HEK-293 cells, human Notch3. On the set-up: expressed in transfected cells. On the procedure: The ability of the 59R1 IgG2 antibody to cross-react with other Notch receptors was determined by FACS assay using HEK-293 cells transiently transfected with the human Notch1, Notch2, Notch3 or Notch4 expression plasmid and green fluorescent protein (GFP) as a transfection control. GFP positive cells indicated expression of the transgene. The 59R1 IgG2 was added to the cells at 2 μg/ml and detected by PE-conjugated goat anti-human Fc gamma specific (Jackson Immunochemicals). All Notch constructs were full length.

The next assay relates to B51 breast tumors. The assay can be described thus: Limiting dilution assay of cancer stem cell frequency, B51 breast tumors. The assay is classed as in vivo, NOD-SCID mice. The source says: Limiting dilution assays (LDAs) can be used to assess the effect of a Notch-binding agent on solid tumor cancer stem cells and on the tumorigenicity of a tumor comprising the cancer stem cells. The assays can be sued to determine the frequency of cancer stem cells in tumors from animals treated with the Notch-binding agent or other agent and to compare that frequency to the frequency of cancer stem cells in tumors from control animals.
An LDA was used to assess the effect on the tumorigenicity of the B51 breast tumors that were treated with the combination of control antibody (1B711) plus paclitaxel (Taxol) or treated with the combination of 59R1 and paclitaxel, as described above in Example 7. In addition, the effect of treatment of B51 breast tumors with the control antibody alone or 59R1 alone was also determined by LDA. The doses of antibodies and paclitaxel and the schedule of dosing for the control antibody group and the 59R1 group were the same as described in Example 7, above for the other two treatment groups. After three doses of antibodies and/or paclitaxel, tumors were harvested, processed and dissociated into single cells. The human tumor cells were isolated from the xenograft tumor cells by incubation with biotinylated mouse antibodies (α-mouse CD45-biotin1:200 dilution and rat α-mouse H2 Kd-biotin1:100 dilution, BioLegend, San Diego, Calif.) on ice for 30 min, followed by addition of streptavidin-labeled magnetic beads and removal of the mouse cells with the aid of a magnet. The human cells in the suspension were harvested and counted.
A serial titration of cells (30, 90, 270, and 810 cells) from each of the four treatment groups was injected in a 1:1 (v/v) mixture of FACS buffer and Matrigel into a new set of NOD-SCID mice (n=10/group). Tumors were allowed to grow for 72 days. The percentage of mice with detectable tumors was determined in all groups. The cancer stem cell frequency was then calculated using L-Calc™ software (StemCell Technologies Inc.; downloadable from www.stemcell.com/search/default.asp).

For another assay, the target named is human Notch2 (Homo sapiens, UniProt Q04721). The assay can be described thus: DLL4-Fc induced receptor activation in transfected PC3 cells, human Notch2. The class given is cell-based. Also on record: expressed in transfected cells. The following applies: immobilized DLL4-Fc. On the procedure:
59R5 was determined to have similar activity in blocking Notch2 and Notch3 signaling as 59R1. Receptor activation was determined in luciferase-based assays. PC3 tumor cells were transiently transfected with a human or mouse Notch receptor (human Notch2, murine Notch2, human Notch3, or murine Notch3) and […] inducible reporter construct. Transfected cells were incubated with different concentrations of 59R1 or 59R5 antibody in the presence of passively immobilized DLL4-Fc protein. Notch receptor activation was determined by measuring luciferase activity.

Where [2] appears, read: B51, combination of 59R1 and paclitaxel.

Sequence of human Notch3 (Q9UM47 40-2321): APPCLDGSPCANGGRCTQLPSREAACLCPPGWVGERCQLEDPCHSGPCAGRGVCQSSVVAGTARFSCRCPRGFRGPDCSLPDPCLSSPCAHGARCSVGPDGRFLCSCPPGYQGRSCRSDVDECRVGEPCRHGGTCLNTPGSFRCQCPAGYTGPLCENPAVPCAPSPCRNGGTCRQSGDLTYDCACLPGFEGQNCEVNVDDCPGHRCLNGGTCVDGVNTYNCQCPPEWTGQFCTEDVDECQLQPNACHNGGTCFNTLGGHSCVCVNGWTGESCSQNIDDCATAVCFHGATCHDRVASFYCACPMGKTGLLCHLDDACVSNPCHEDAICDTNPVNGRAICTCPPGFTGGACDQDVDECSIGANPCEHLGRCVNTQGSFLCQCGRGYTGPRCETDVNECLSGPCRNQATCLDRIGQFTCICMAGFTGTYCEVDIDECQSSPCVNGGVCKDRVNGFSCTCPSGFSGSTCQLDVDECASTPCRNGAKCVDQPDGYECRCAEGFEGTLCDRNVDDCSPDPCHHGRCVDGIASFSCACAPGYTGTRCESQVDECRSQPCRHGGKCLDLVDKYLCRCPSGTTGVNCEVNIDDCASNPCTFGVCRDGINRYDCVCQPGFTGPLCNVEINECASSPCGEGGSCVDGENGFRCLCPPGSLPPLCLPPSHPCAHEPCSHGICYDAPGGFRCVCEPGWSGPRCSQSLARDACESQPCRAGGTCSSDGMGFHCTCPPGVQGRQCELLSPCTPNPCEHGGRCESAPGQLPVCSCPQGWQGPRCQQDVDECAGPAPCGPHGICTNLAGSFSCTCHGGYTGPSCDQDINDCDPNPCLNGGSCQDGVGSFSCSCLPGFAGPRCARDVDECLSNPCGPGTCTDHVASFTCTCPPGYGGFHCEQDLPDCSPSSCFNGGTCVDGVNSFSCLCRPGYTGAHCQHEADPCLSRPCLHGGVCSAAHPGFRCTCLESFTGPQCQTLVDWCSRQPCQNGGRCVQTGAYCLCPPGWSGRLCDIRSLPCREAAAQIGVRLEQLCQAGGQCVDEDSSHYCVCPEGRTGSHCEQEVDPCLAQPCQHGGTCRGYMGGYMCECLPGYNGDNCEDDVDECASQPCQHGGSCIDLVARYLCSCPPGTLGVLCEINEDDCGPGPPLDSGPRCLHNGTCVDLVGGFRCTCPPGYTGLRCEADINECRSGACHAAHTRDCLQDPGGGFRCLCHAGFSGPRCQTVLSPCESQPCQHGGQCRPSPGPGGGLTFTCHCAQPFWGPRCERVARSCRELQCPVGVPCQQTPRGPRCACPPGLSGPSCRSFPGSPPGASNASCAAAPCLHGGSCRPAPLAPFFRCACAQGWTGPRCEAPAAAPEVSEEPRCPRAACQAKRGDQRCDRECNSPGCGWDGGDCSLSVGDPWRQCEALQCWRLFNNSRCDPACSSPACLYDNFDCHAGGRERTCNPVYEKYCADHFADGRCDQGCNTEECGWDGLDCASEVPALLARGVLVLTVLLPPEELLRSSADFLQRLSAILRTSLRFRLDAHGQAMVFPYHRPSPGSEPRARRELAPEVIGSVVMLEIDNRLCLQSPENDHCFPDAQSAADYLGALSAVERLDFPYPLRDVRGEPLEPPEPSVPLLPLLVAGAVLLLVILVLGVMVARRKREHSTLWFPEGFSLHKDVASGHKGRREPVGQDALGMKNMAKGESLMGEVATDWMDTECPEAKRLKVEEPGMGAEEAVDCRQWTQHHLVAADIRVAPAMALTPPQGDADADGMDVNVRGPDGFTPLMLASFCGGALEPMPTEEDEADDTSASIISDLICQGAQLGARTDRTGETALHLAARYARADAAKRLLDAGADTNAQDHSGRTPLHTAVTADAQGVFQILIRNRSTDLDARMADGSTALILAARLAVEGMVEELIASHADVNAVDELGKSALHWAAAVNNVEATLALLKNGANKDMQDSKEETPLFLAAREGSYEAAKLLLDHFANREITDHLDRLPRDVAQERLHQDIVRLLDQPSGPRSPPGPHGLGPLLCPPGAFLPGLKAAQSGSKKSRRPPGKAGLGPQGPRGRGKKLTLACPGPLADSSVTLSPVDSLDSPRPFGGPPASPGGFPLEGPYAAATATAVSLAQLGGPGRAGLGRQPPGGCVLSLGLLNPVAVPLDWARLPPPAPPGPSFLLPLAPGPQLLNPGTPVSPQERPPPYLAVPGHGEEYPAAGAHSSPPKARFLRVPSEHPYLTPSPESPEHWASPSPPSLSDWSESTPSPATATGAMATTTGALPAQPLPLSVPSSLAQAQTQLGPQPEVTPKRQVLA
Sequence of human Notch2 (Q04721 26-2471): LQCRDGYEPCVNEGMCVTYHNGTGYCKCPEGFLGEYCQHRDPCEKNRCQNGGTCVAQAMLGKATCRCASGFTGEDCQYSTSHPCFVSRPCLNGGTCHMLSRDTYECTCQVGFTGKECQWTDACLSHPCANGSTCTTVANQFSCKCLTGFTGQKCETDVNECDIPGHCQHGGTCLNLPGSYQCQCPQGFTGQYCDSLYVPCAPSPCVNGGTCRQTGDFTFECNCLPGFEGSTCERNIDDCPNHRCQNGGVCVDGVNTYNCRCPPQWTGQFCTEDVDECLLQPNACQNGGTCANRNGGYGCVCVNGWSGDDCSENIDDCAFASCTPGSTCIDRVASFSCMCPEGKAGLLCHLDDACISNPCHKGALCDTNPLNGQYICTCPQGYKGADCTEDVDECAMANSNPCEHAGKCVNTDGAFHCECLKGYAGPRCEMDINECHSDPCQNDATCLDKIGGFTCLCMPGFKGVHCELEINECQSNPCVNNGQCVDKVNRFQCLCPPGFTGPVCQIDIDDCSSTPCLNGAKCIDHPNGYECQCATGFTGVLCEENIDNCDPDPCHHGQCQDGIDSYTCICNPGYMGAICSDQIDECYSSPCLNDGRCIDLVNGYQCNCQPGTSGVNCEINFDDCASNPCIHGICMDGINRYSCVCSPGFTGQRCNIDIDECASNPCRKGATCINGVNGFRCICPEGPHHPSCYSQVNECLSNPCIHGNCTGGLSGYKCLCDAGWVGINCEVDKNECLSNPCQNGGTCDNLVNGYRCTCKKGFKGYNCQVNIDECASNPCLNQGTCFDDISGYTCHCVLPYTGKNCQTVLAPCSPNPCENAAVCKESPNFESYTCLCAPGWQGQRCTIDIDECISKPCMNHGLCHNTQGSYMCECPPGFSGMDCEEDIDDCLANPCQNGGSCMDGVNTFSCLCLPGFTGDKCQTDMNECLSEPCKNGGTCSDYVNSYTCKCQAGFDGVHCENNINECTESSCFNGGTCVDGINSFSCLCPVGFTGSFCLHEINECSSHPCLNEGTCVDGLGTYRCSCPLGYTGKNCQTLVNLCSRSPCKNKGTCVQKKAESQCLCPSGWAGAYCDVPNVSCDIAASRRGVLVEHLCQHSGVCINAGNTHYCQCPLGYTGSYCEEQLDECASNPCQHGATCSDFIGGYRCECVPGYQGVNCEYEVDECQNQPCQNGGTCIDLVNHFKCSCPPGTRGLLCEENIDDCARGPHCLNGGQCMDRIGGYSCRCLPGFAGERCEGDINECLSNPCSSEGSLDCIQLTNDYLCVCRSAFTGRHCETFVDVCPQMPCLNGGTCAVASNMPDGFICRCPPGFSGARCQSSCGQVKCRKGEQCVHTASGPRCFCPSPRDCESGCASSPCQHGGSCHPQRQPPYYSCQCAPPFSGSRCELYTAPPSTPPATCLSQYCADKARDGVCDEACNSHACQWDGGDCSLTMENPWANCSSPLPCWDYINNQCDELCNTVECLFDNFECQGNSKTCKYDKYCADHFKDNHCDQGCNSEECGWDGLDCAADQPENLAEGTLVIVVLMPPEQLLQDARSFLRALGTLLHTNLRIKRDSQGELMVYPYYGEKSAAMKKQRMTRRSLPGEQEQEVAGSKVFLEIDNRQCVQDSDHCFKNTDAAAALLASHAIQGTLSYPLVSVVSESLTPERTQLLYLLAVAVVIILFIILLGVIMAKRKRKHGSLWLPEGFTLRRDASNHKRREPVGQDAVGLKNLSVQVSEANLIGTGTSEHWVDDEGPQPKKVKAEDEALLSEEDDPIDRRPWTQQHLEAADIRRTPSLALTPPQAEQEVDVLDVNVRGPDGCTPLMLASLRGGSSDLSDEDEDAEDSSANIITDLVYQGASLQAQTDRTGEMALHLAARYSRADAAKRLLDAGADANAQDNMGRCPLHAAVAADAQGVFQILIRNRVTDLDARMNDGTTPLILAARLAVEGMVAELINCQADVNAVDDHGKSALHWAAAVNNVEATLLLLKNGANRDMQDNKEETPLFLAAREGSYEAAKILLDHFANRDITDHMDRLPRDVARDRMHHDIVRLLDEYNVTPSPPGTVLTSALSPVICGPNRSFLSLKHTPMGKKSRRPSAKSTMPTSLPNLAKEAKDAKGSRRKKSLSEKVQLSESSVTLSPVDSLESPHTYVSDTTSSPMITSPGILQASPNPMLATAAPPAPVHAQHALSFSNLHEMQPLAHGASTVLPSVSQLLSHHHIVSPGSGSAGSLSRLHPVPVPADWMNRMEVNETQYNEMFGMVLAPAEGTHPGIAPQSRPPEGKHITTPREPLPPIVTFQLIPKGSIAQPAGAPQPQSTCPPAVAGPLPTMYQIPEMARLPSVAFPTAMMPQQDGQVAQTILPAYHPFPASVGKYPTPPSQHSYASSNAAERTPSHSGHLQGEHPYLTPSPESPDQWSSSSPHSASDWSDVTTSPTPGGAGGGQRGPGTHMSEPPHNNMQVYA

Turning to “59R1: human IgG2 antibody binding Notch2 and Notch3; heavy and light chain SEQ ID NO:16 and 18; ATCC PTA-9547”, in the assay on stroma of Colo205 tumors, the “Fold 1417466_at (Rgs5)” value was −3.39, the “Fold 1417714_x_at (Hba-al/Hba-a2)” value is −8.37, the “Fold 1420872_at (Gucy1b3)” value is reported as −1.94 and the “Fold 1420942_s_at (Rgs5)” value is −5.52. In the assay with stroma of Colo205 tumors, the “Fold 1421964_at (Notch3)” value is −3.26, the “Fold 1434141_at (Gucy1a3)” value was −2.49, the “Fold 1451501_a_at (Ghr)” value is −1.83 and the “Fold 1452590_a_at (Plac9)” value is given as −1.61. For the same substance, in assay [1], the “hDLL4-induced Notch2 reporter activity” value is “inhibit”. For the same substance, the “B51 tumor recurrence after paclitaxel treatment” value with B51 breast tumor cells is given as “recur more rapidly in the control group compared with the group treated with 59R1”. In the assay with human Notch3, the “binding to full-length human Notch3 (FACS)” value is “specifically binds”. Besides, the “reduction of cancer stem cell frequency relative to the control” value with B51 breast tumors (B51, 59R1 alone) was “more than two-fold”. Also, in the assay with B51 breast tumors (setting [2]), the “reduction of cancer stem cell frequency relative to treatment with 59R1 alone” value is on record as “more than two-fold”, the “reduction of cancer stem cell frequency relative to treatment with paclitaxel alone” value is recorded as “about twelve-fold” and the “reduction of cancer stem cell frequency relative to treatment with the control antibody” value is listed as “about 4.5 fold”.
Take “59R5: human antibody that specifically binds human Notch 2 and human Notch 3; heavy and light chain SEQ ID NO:49 and 18; ATCC PTA-10170”: the “ligand-induced activation of human Notch2 receptor signaling” value with human Notch2 is given as “blocked”.
